According to patent US5576419A, “Mild solid-phase synthesis of aligned branched triple-helical peptides” (Regents of the University of Minnesota, priority 1995, dated 1996):

Columns and labels:
[1] = CD thermal transition (triple-helix melting), molar ellipticity at 225 nm; type: physicochemical; conditions: [θ] at 225 nm; for Tm (triple-helical melt): 15-85 °C, 1-5% aqueous HOAc, pH 2.4
Experimental: Edman degradation sequence analysis was performed on an Applied Biosystems 477A Protein Sequencer/120A Analyzer for both solid-phase and "embedded" (non-covalent) sequencing as described by C. G. Fields et al., Anal. Biochem. 203, 245 (1992) and C. G. Fields et al., Peptide Res. 6, 39 (1993), which are incorporated herein by reference. Fulvene-piperidine concentrations (301 nm) and scanning UV spectra (200-320 nm) were determined with a BECKMAN DU-70 Spectrophotometer. Amino acid analyses were performed on a BECKMAN 6300 Analyzer with a sulfated polystyrene cation-exchange column (0.4 cm×25 cm). Peptides were hydrolyzed with 6N aqueous HCl at 110° C. for 18-48 h. Electrospray mass spectrometric (ES-MS) methods have been described by C. G. Fields et al., Peptide Res. 6, 39 (1993), which is incorporated herein by reference. Fast atom bombardment (FAB) MS was performed on a VG 7070E-HF with a glycerol matrix and laser desorption time-of-flight (LD-TOF) MS with both a breadboard and prototype matrix-assisted TOF mass spectrometer from Millipore Corporation (Milford, Mass.) with a sinapinic acid matrix [saturated solution of 10 mg/mL sinapinic acid dissolved in acetonitrile-H2 O (1:3) containing 0.1% TFA]. THPs were ^3 H-labeled by reductive methylation [N. Jentoft et al., J. Biol. Chem. 254, 4359 (1979)] with NaCNBH3 and [^3 H]formaldehyde, desalted over a Sephadex G-50 column (50×1.5 cm) in PBS, pH 7.4, and analyzed by size-exclusion chromatography (SEC). CD spectroscopy was performed on a Jasco 710 spectropolarimeter using a 100 or 200 μL, 0.1 mm cell. The THP concentrations (determined spectrophotometrically) in 1-5% aqueous HOAc, pH 2.4 were [THP-1]=0.16 mM, [THP-2]=0.084 mM, [THP-3]=0.068 mM, and [THP-4]=0.015 mM. Spectra were recorded by accumulating 5 scans at 0.5 nm intervals (response of 1 sec). Thermal transitions were examined by measuring the molar ellipticity ([θ]) at 225 nm from 15°-85° C.

[2] = system: K1735M4 tumor cell; experiment: Melanoma cell spreading on peptide-coated plates; type: cell-based, mouse; conditions: for cell areas averaged (cell spreading): [THP-2]=0.9 μM, [SSP]=2.1 μM, [GPP*]=1.4 μM
Experimental: (§1) K1735M4 tumor cell adhesion and spreading assays were as described previously [M. K. Chelberg et al., J. Cell Biol. 111, 261 (1990)] with minor alterations. Peptides were dissolved in PBS and adsorbed directly onto 96-well polystyrene Immulon 1 plates (Dynatech Laboratories Inc., Chantlily, Va.) overnight at 37° C. Nonspecific binding sites were blocked with 5 mg/mL bovine serum albumin in adhesion media [Dulbecco's modified Eagle's medium containing 20 mM 4-(2-hydroxyethyl)-1-piperazineethanesulfonic acid] for 2 h at 37° C. Tumor cells were released from tissue culture flasks with 37° C. PBS containing 10 mM EDTA and washed several times with adhesion media. Cells were labeled overnight with 1 μCi/mL [^3 H]thymidine (New England Nuclear, Boston, Mass.) for adhesion assays. Cells were added to the plate wells at a density of 50,000 cells/mL in a total volume of 100 μL and adhered for 1 h at 37° C. For adhesion assays wells were washed several times with adhesion media and remaining cells lysed and radioactivity determined as described [M. K. Chelberg et al., J. Cell Biol. 111, 261 (1990)]. For spreading assays wells were fixed and stained using DiffQuik reagents (Baxter) and photographed with a Nikon MF-15 camera mounted on a Nikon Diaphot inverted microscope at 200× magnification. Cell spreading was quantitated by an Optomax System IV image analyzer equipped with a Hitachi Monitor. The efficiency of peptide adsorption to the Immulon plates was determined as described [M. K. Chelberg et al., J. Cell Biol. 111, 261 (1990)] using ^3 H- or ^125 I-labeled peptide.

[3] = system: K1735M4 tumor cell; experiment: Melanoma cell adhesion to peptide-coated Immulon plates; type: cell-based, mouse; conditions: for EC50: coated peptide 0.1-300 μM, cells adhered 1 h at 37 °C, one mole = three peptide chains, read-out: Half maximal melanoma cell adhesion (peptide concentration)
Experimental: as §1

## (Gly-Pro-Hyp)3 -Gly-Val-Lys-Gly-Asp-Lys-Gly-Asn-Pro-Gly-Trp-Pro-Gly-Ala-Pro [THP-4]
[1]
  Tm (triple-helical melt): 35.0 °C

## (Gly-Pro-Hyp)8 [THP-3]
[2]
  cell areas averaged (cell spreading): 0.017 mm^2 /μM peptide
[3]
  EC50: > 100000 nM
[1]
  Tm (triple-helical melt): 42.5 °C

## (Gly-Pro-Hyp)8 -Gly-Glu-Phe-Tyr-Phe-Asp-Leu-Arg-Leu-Lys-Gly-Asp-Lys [THP-1]
[1]
  Tm (triple-helical melt): 53.0 °C

## (Gly-Pro-Hyp)8 -Gly-Val-Lys-Gly-Asp-Lys-Gly-Asn-Pro-Gly-Trp-Pro-Gly-Ala-Pro [THP-2]
[2]; THP-2 versus SSP and GPP*
  Cell spreading, comparison in words: more extensive
[2]
  cell areas averaged (cell spreading): 0.048 mm^2 /μM peptide
[3]; THP-2 versus SSP
  increase in melanoma cell adhesion activity compared with the α1(IV) 1263-1277 sequence alone: 100 fold
[3]
  EC50: 1120 nM
[1]; 5% aqueous HOAc, pH 2.4, shown by SEC to be aggregation
  midpoint of low temperature transition (aggregation): 23.5 °C
[1]
  Tm (triple-helical melt): 58.5 °C
